US20240156832A1, “METHODS OF METABOLIZING METOPIMAZINE AND ITS SALTS” (Neurogastrx, Inc., priority 2020, published 2024)

How the values were obtained:
[1] = Incubation of MPZ in human liver S9; format: in vitro ADME
Description: Initial experiment was conducted with S9 fractions from liver and intestine to assess the role of liver and intestinal enzymes in the metabolism of MPZ. The reaction mixture contained 2.5 μM MPZ, pooled human liver or intestine S9 fraction (1 mg/mL S9 protein), 100 mM KPi buffer (pH 7.4). The reaction mixture was pre-incubated for 3-5 min at 37° C. in a humidified incubator filled with 5% CO2 followed by the addition of NADPH (1 mM) to initiate the reaction. The reaction was incubated for 0 and 60 min. The total percentage of organic solvent in incubation mixture was <0.1%. The reactions were terminated by the addition of sample mixture of acetonitrile and ethanol (90:10, v/v). The positive control substrate, 7-EC, was incubated in triplicate in an identical manner as MPZ for S9 fractions.

Dog PK study = format: in vivo, beagle dogs
Description: The pharmacokinetics of metopimazine (parent) and metopimazine acid (metabolite) were evaluated in three male, beagle dogs following a single oral dose of 10 mg/kg metopimazine (free base). The dogs were obtained from Marshall BioResources (North Rose, NY). Animals were weighed prior to each dose administration for the purpose of dose calculation. Metopimazine was administered in size 13 gelatin capsules. Whole venous blood samples of approximately 1.0 mL were collected from a peripheral vein of all animals for determination of metopimazine and metopimazine acid. Samples were collected at the following timepoints: 0.25, 0.5, 1, 2, 4, 8, 12, and 24 hours after test article administration. All animals were sampled at each timepoint. Samples were collected in tubes containing K2EDTA and placed on ice until processed for plasma by centrifugation under refrigeration for at least ten minutes at 3000 rpm. After centrifugation, supernatant was removed and stored frozen in a −70° C. freezer until analyzed by LC-MS/MS.
(§1) An MRM LC-MS/MS method was developed for MPZ and metopimazine acid (MPZA) in rat, dog, and human plasma. The method was run in reverse phase in positive ion mode. […] D6-isotopically labeled internal standards were used for each analyte. The following m/z transitions were monitored: metopimazine 446.3→141.1 and metopimazine acid 447.2→142.1.
(§2) Noncompartmental Pharmacokinetics analysis was performed in Phoenix 64 Winnonlin version 8.1.

[2] = for Peak Area at Time 0 / Peak Area at Time 90 min: metopimazine incubation in human liver microsomes, full scan LC-MS
Description: For protein concentration optimization, MPZ at 1 μM was incubated with varying concentration of HLM proteins (0.1, 0.25, 0.5, and 1.0 mg/mL microsomal protein), 100 mM KPi buffer (pH 7.4). After pre-incubation for 3-5 minutes at 37° C., the reaction was initiated by the addition of NADPH (1 mM) for 60 minutes in triplicates.
For incubation time optimization, MPZ at 1 μM was incubated with pooled HLM (0.5 mg/mL microsomal protein) and 100 mM KPi buffer (pH 7.4). After pre-incubation for) for 3-5 minutes at 37° C., the reaction was initiated by the addition NADPH (1 mM) incubated for 0, 10, 20, 40, 60, and 90 minutes to determine the optimal incubation time (linear range). All metabolic reactions in this study were terminated by the addition of chilled organic solvent (acetonitrile:ethanol 90:10, v/v) containing internal standards, unless otherwise indicated.
LC separation conditions were developed for MPZ and its metabolites (MPZA and MPZS), 7 hydroxycoumarin, each metabolite of CYP probe substrate, benzydamine N oxide, and phthalazine. The LC MS/MS system consisted of a Shimadzu Nexera X2 LC-30 UPLC system (Shimadzu Corporation, Kyoto, Japan), and an API 4000 triple quadrupole mass spectrometer (SCIEX, Framingham, MA) was used for analysis. All analytes were analyzed using electrospray ionization (ESI) in positive ion mode except for 7-EC, which used negative ion mode. The LC-MS/MS system was controlled by Analyst software (version 1.6.1, SCIEX, Framingham, MA).
For each analytical method, a calibration curve was generated for the quantification of MPZ and its two metabolites (MPZA and MPZS). […] PAR was also used for all positive control compounds.
% parent remaining=(mean concentration or PAR at each sampling time point/mean concentration or PAR of time zero)×100

Rat PK study = format: in vivo, Sprague Dawley rats
Description: The pharmacokinetics of metopimazine (parent) and metopimazine acid (metabolite) were evaluated in male and female Sprague Dawley rats following a single oral dose of 45 mg/kg metopimazine (free base). Three animals per sex in each dose group were sampled at each timepoint after administration (0.25, 0.5, 1, 2, 4, 8, 12, and 24 hours). The rats (Rattus norvegicus) were obtained from Envigo RMS, Inc. (Indianapolis, IN) and were 2 months old. Animals were weighed prior to each dose administration for the purpose of dose calculation. Whole venous blood samples of approximately 0.5 mL were collected from a peripheral vein of animals for determination of exposure to metopimazine and metopimazine acid. Three animals per sex were sampled at each timepoint. Samples were collected in tubes containing K2EDTA with protease inhibitor cocktail (Sigma, #P8340, at ratio 1:100) and placed on ice until processed for plasma by centrifugation under refrigeration for at least ten minutes at 3000 rpm. After centrifugation, supernatant was removed and stored frozen in a −70° C. freezer until analyzed by LC-MS/MS.
as §1, §2

other CYP enzymes = test: Incubation with the other recombinant CYP isoforms; format: in vitro ADME, human; conditions: 1 μM MPZ, 60 min
Text: All other procedures were the same as described previously.

[3] = male, beagle, dog, in vivo, po, 10 mg/kg
[4] = female, Sprague Dawley, rat, in vivo, po, 45 mg/kg
[5] = male, Sprague Dawley, rat, in vivo, po, 45 mg/kg

Structure (SMILES)	MPZ disappeared ([1]; human liver S9 1 mg/mL, 2.5 μM MPZ, NADPH, 60-minute incubation)	AUC(0-inf) (Dog PK study; [3]) [ng·h/mL]	Tmax (Dog PK study; [3]) [h]	MPZ remaining ([2]; human, microsomes, 1 h, 1 μM, pH 7.4) [%]	Peak Area at Time 0 [2]	Peak Area at Time 90 min [2]	AUCinf (Rat PK study; [4]) [ng·h/mL]	Cmax (Rat PK study; [4]) [ng/mL]	Tmax (Rat PK study; [4]) [h]	AUCinf (Rat PK study; [5]) [ng·h/mL]	Cmax (Rat PK study; [5]) [ng/mL]	contribution of other CYP enzymes to MPZ metabolism (other CYP enzymes)	metabolites formed ([1]; human liver S9, 60-minute incubation)	MPZA metabolite to parent ratio compared with humans (Dog PK study; dogs)	AUC(0-inf) (Rat PK study; [4]) [ng·h/mL]	MPZA metabolite to parent ratio compared with humans (Rat PK study; rats)
CS(=O)(=O)c1ccc2c(c1)N(CCCN1CCC(C(N)=O)CC1)c1ccccc1S2 [MPZ, metopimazine]	approximately 30%	3190	0.833	37.2	2373	715	13800	1730	4	8160	1080	None of the other CYP enzymes appeared to have significant contribution				
CS(=O)(=O)c1ccc2c(c1)N(CCCN1CCC(C(=O)O)CC1)c1ccccc1S2 [MPZA, metopimazine acid]		1030			0	208		106	4	755	89		formed	far lower in dogs	944	particularly lower in rats
